TGI data for seven compounds are collected here from PubChem BioAssay (NCI).

Each structure is given as a SMILES string.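 Briefly, cells in 96-well plates were exposed to five compound concentrations for 48 h, and endpoints were estimated by linear interpolation. TGI is the concentration that stops growth completely.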

Some test systems named below: A498 renal; ACHN renal; CAKI-1 renal; DU-145 prostate; HCT-15 colon; HS 578T breast; IGROV1 ovarian; K-562 leukemia; MDA-MB-435; MDA-N; NCI-H23 lung; NCI-H522 lung; NCI/ADR-RES ovarian; OVCAR-3 ovarian; PC-3 prostate; SK-MEL-2 melanoma; SK-MEL-5 melanoma; SR leukemia; SW-620 colon; UACC-62 melanoma.
Holding throughout (experiment): growth of human tumour cells (NCI), 48 h

In the case of `CC(=O)OCC1OC(n2c(C#N)cc(=O)[nH]c2=O)CC1OC(C)=O` (centres undefined), the TGI with A498 renal, in the test on ACHN renal, in the test on CAKI-1 renal, in the test with DU-145 prostate, with HCT-15 colon and in the test on HS 578T breast was greater than 100 µM each time. The TGI with IGROV1 ovarian, in the test on K-562 leukemia, with MDA-MB-435, in the test on MDA-N, with NCI-H23 lung and in the test on NCI-H522 lung was greater than 100 µM throughout. The TGI with NCI/ADR-RES ovarian, with OVCAR-3 ovarian, in the test on PC-3 prostate, in the test with SK-MEL-2 melanoma, in the test with SK-MEL-5 melanoma and in the test with SR leukemia was greater than 100 µM in each case. Moreover, the TGI in the test on SW-620 colon and in the test on UACC-62 melanoma was greater than 100 µM in each case.
As for `Cc1ccccc1N=CN(C)C`, the TGI in the test on A498 renal, with ACHN renal, in the test on CAKI-1 renal, with DU-145 prostate, with HCT-15 colon and with HS 578T breast was greater than 100 µM each time. Besides, the TGI in the test on IGROV1 ovarian is greater than 100 µM; with K-562 leukemia, 44.4 µM; in the test on MDA-MB-435 it was greater than 100 µM; in the test on MDA-N it was greater than 100 µM; with NCI-H23 lung, 61.8 µM; with NCI-H522 lung it was 94.2 µM. The TGI is greater than 100 µM with NCI/ADR-RES ovarian; 81.2 µM with OVCAR-3 ovarian; greater than 100 µM in the test with PC-3 prostate; greater than 100 µM in the test with SK-MEL-2 melanoma; 43.6 µM in the test on SK-MEL-5 melanoma; greater than 100 µM in the test on SR leukemia. For the same compound, the TGI with UACC-62 melanoma was greater than 100 µM.
On to `CN(C)C(=S)N1C(=S)N(c2ccccc2)C(=Nc2ccccc2)C1=Nc1ccccc1`, for which the TGI in the test with A498 renal, in the test on ACHN renal, in the test with CAKI-1 renal, with DU-145 prostate, with HCT-15 colon and with HS 578T breast was greater than 100 µM throughout. Also, the TGI in the test on IGROV1 ovarian, in the test on K-562 leukemia, in the test with MDA-MB-435, with MDA-N, in the test on NCI-H23 lung and with NCI-H522 lung was greater than 100 µM each time. Also, the TGI in the test on NCI/ADR-RES ovarian, with PC-3 prostate, in the test on SK-MEL-2 melanoma, with SK-MEL-5 melanoma, in the test on SR leukemia and with SW-620 colon was greater than 100 µM throughout. The compound further yielded a TGI with UACC-62 melanoma greater than 100 µM.
For `O=C1c2sc(-c3ccc(F)cc3)cc2-n2cccc21`, the TGI in the test on A498 renal is 62.8 µM; in the test on ACHN renal, greater than 100 µM; in the test on CAKI-1 renal, 34.5 µM; in the test on DU-145 prostate, greater than 100 µM; in the test on HCT-15 colon, greater than 100 µM; with HS 578T breast, 62.7 µM. Also, the TGI with IGROV1 ovarian was 38.3 µM; in the test on K-562 leukemia it was 74.2 µM; with MDA-MB-435, greater than 100 µM; in the test on MDA-N, greater than 100 µM; in the test with NCI-H522 lung, greater than 100 µM; in the test on NCI/ADR-RES ovarian, greater than 100 µM. In addition, the TGI in the test on OVCAR-3 ovarian, with PC-3 prostate, with SK-MEL-2 melanoma, with SK-MEL-5 melanoma, in the test with SR leukemia and in the test on SW-620 colon was greater than 100 µM throughout. In the test with UACC-62 melanoma, this compound gave a TGI greater than 100 µM.
Take `CCN(CC)C(=S)SNc1ccc(S(N)(=O)=O)cc1`: the TGI in the test on A498 renal is greater than 100 µM; in the test with ACHN renal, greater than 100 µM; with CAKI-1 renal, greater than 90.6 µM; with DU-145 prostate it was greater than 100 µM; in the test with HCT-15 colon, greater than 100 µM; in the test with HS 578T breast it was greater than 100 µM. Further, the TGI in the test with IGROV1 ovarian is greater than 100 µM; in the test with K-562 leukemia, greater than 100 µM; in the test on MDA-MB-435 it was greater than 100 µM; with MDA-N, greater than 100 µM; with NCI-H23 lung, greater than 100 µM; in the test with NCI-H522 lung, 29.5 µM. The TGI was greater than 100 µM with NCI/ADR-RES ovarian; greater than 100 µM in the test with PC-3 prostate; greater than 100 µM in the test with SK-MEL-2 melanoma; greater than 100 µM with SK-MEL-5 melanoma; greater than 85.6 µM in the test with SR leukemia; 19.3 µM in the test with SW-620 colon. The same compound returned a TGI in the test on UACC-62 melanoma greater than 100 µM.
Turning to `CCc1n[nH]c(=O)n1N1C(=O)CCC1=O`, the TGI in the test on A498 renal, in the test with ACHN renal, in the test on CAKI-1 renal, in the test on DU-145 prostate, in the test with HCT-15 colon and in the test on HS 578T breast was greater than 100 µM in each case. Besides, the TGI with IGROV1 ovarian, with K-562 leukemia, with MDA-MB-435, in the test with MDA-N, with NCI-H522 lung and with NCI/ADR-RES ovarian was greater than 100 µM each time. Besides, the TGI in the test on OVCAR-3 ovarian, with PC-3 prostate, in the test with SK-MEL-2 melanoma, in the test on SK-MEL-5 melanoma, in the test on SR leukemia and in the test with SW-620 colon was greater than 100 µM in each case. This compound showed a TGI in the test with UACC-62 melanoma greater than 100 µM.
In the case of `O=c1[nH]c(=O)n(C2OC(CO)C(O)C2O)c2ncc(-c3ccc(-c4ccccc4)cc3)nc12` (centres undefined), the TGI with A498 renal, in the test with ACHN renal, in the test on CAKI-1 renal, with DU-145 prostate, in the test with HCT-15 colon and with HS 578T breast was greater than 20 µM each time. Besides, the TGI with IGROV1 ovarian, with K-562 leukemia, with MDA-MB-435, with MDA-N, with NCI-H23 lung and in the test with NCI-H522 lung was greater than 20 µM throughout. Moreover, the TGI in the test on NCI/ADR-RES ovarian, in the test on PC-3 prostate, in the test with SK-MEL-2 melanoma, in the test with SK-MEL-5 melanoma, in the test on SR leukemia and in the test with SW-620 colon was greater than 20 µM each time. In addition, the TGI in the test with UACC-62 melanoma is greater than 20 µM.
